In general, Ki refers to a dissociation constant, usually derived from enzyme kinetics or from competition with a known ligand. Read a low Ki as higher affinity.

Each structure is given as a SMILES string.

The nature of experiment [1]: Inhibitory activity against alpha-L-fucosidase in bovine kidney; Competitive Inhibition type.
Experiment [2] can be described thus: Inhibitory activity against alpha-L-fucosidase in bovine epididymis at PH of 6.5; Competitive Inhibition type. The settings on record: pH 6.5.
Experiment [3] in a line: Inhibitory activity against alpha-L-fucosidase in bovine kidney at PH of 6.5; Mixed Inhibition type. The settings on record: pH 6.5.

`O[C@H]1[C@H](O)[C@H](O)O[C@@H](CS)[C@H]1O` [(2R,3S,4R,5S,6R)-6-Mercaptomethyl-tetrahydro-pyran-2,3,4,5-tetraol]: the affinity in experiment [1] corresponds to a Ki of 42 µM.

On to `CC(=O)NCSC1OC(C)C(O)C(O)C1O` (stereo not drawn) [N-(3,4,5-Trihydroxy-6-methyl-tetrahydro-pyran-2-ylsulfanylmethyl)-acetamide], for which the Ki is 5.6 µM in experiment [2] and 4.6 µM in experiment [3].
